According to patent publication US20240139129A1, “NOVEL METHOD AND AGENT FOR TREATING, DIAGNOSING AND DETECTING DIABETES AND COMPLICATIONS” (Biozipcode, Inc., priority 2021, published 2024):

Test system: diabetic patients (type 1 and type 2 diabetes mellitus)
Assay: Research Plan 2: therapy of diabetes mellitus targeting bone marrow-derived abnormal hematopoietic stem cell in patients
Assay type: in vivo, human
Conditions: type 1 and type 2 diabetic patients, 12 weeks therapy

## insulin: insulin therapy alone for three months (control group) in the human research plan
  (A) effect of eliminating abnormal hematopoietic stem cells: not eliminated
  (B) effect of healing diabetes mellitus: not observed
  (C) therapeutic effect on a complication: observed to some extent
